Paper PMC6368403, “Identification of a bilirubin receptor that may mediate a component of cholestatic itch” (eLife, 2019)
“And” between values parts separate entries of the source, which are not always exact repeats. Equal entries are not always repeated.

Tests used:
mice = experiment: Scratching bouts after subcutaneous injection into the nape of the neck / back; assay type: in vivo, mouse; conditions: for Scratching bouts binned according to 5 min intervals (time course of itch behavior): one column per mouse, values of a mouse sum to 1 (Fig 1B)
Protocol: All applicable behavioral tests were performed and analysed with the experimenter blind to genotype. […] On the day before the experiment, animals were placed in the test chamber for 30 min before being subjected to a series of three mock injections with 5 min break periods in between. On the day of the experiment, animals were first allowed to acclimatize to the test chamber for 10 min before injection. […] A bout of scratching was defined as a continuous scratching movement with either hindpaw directed at the area of the injection site. In the cheek injection model, a wipe was defined as a single forepaw stroking the site of the injection. Use of both forepaws on the face or cheek was considered as grooming behavior. […] For H1R block, 30 mg/kg of cetirizine HCl (pH 7.4) was given intraperitoneally thirty minutes prior to injection of bilirubin. Licking behavior was quantified in seconds and identified as the licking of the toes or footpad of the hind paw site of injection that was neither preceded nor followed by licking of any other portion of the body.

[1] = system: murine peritoneal mast cells; experiment: Ca2+ imaging of murine peritoneal mast cells; assay type: cell-based, mouse; conditions: 100 µM bilirubin
Protocol: (§1) All cultured cells were maintained in DMEM supplemented with 10% FBS and 1% Penicillin/Streptomycin at 37°C, 5% CO2. All data included were generated from cells tested for mycoplasma and found to be negative. Cells were imaged in calcium imaging buffer (CIB; 10 mM HEPES, 1.2 mM NaHCO3, 130 mM NaCl, 3 mM KCl, 2.5 mM CaCl2, 0.6 mM MgCl2, 20 mM glucose, and 20 mM sucrose at pH 7.4 and 290–300 mOsm). To monitor changes in intracellular [Ca^2+] ([Ca^2+]i), cells were loaded with either Fura 2-AM (HEK293 cells) or Fluo 4-AM (DRG neurons and mast cells) for 30 min in the dark at 37°C in CIB just prior to imaging. With Fura 2-AM, emission at 510 nm was monitored from excitation at both 340 nm and 380 nm. With Fluo 4-AM, emission at 520 nm was monitored from excitation at 488 nm. Cells were identified as responding if the intracellular [Ca^2+] rose by either 50% compared to baseline or 50% compared to the [Ca^2+]i change assayed during addition of 50 mM KCl (neurons only). Damaged, detached, high-baseline, and motion-activated cells were excluded from analysis.
Mast cells were purified as described and plated onto glass coverslips coated with […] fibronectin and allowed to recover for 2 hr at 37°C. Cells were then loaded with Fluo-4 AM.
Adult male mice 8–12 weeks of age were sacrificed through CO2 inhalation. […]

Mrgprs = experiment: Ca2+ imaging screen of HEK293 cells transiently expressing other Mrgprs (MRGPRA3, MRGPRD, MRGPRX1, MRGPRX2 and others); assay type: cell-based; conditions: 50 µM bilirubin, 12 Mrgprs screened
Protocol: as §1, with “Damaged, detached, high-baseline, and motion-activated cells were excluded from analysis.” left out
In initial screens, HEK293 cells stably expressing the murine G-protein alpha-subunit Gα15, a unique Gα protein that non-selectively couples a large variety of GPCRs to phospholipase C ^30, were plated on poly-D-lysine-coated coverslips and transiently transfected with constructs encoding the MRGRPR of interest. […] Response was then monitored at 5 s intervals for an additional 60 s.

MRGPRX4 = molecular target: T1, MRGPRX4 (Homo sapiens, UniProt Q96LA9); experiment: Microscale thermophoresis binding to MRGPRX4; parameters: microscale thermophoresis response (binding isotherm), mean: unit not given here; conditions: for microscale thermophoresis response (binding isotherm), mean: mean of n=3, Fig 2-J; for Binding to MRGPRX4: microscale thermophoresis
T1 construct: expressed in transfected cells
T1 sequence (Q96LA9 whole entry): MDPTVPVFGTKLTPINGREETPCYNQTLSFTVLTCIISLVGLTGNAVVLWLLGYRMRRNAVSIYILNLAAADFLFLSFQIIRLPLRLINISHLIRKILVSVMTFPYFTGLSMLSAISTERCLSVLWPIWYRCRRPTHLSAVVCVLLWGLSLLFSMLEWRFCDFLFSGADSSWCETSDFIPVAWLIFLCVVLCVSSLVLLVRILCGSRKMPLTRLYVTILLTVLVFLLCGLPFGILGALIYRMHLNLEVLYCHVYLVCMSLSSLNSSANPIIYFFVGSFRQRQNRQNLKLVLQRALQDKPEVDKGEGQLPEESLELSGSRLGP
Protocol: Binding isotherms for MRGPRA1, MRGPRX4, and MRGRPC11 towards various ligands were determined by microscale thermophoresis with the NanoTemper monolith NT.115 instrument ([Duhr and Braun, 2006]). Ligands were pre-incubated with 10 µM of the GFP-tagged receptor of interest for 5 min at room temperature in binding buffer (20 mM Tris and 150 mM NaCl at pH 8.8). Receptors were crudely purified as a membrane fraction from cells stably expressing the receptor ([Vasavda et al., 2017]). Haem metabolites were freshly dissolved in 0.1 M NaOH in dim light and then diluted into assay buffer. Lyophilized BAM8-22 was dissolved in binding buffer. The pH of each ligand was evaluated prior to incubation with a receptor. Samples were loaded into NT.115 Hydrophobic-Treated Capillaries from NanoTemper. Microscale thermophoretic experiments were executed using 20% LED power and 15% MST power. KDs were calculated using the law of mass action with data from three independent experiments. Binding between bilirubin and receptors was evaluated purely thermophoretically, whereas binding between BAM8-22 and MRGPRC11 was evaluated by T-Jump. Samples with dramatic deviations in initial fluorescence were excluded.

microscale thermophoresis response (binding isotherm), mean (MRGPRX4; [Ligand] 3.05e-8 M)	microscale thermophoresis response (binding isotherm), mean (MRGPRX4; [Ligand] 6.1e-8 M)	microscale thermophoresis response (binding isotherm), mean (MRGPRX4; [Ligand] 1.221e-7 M)	microscale thermophoresis response (binding isotherm), mean (MRGPRX4; [Ligand] 2.441e-7 M)	microscale thermophoresis response (binding isotherm), mean (MRGPRX4; [Ligand] 4.883e-7 M)	microscale thermophoresis response (binding isotherm), mean (MRGPRX4; [Ligand] 9.766e-7 M)	microscale thermophoresis response (binding isotherm), mean (MRGPRX4; [Ligand] 1.9531e-6 M)	microscale thermophoresis response (binding isotherm), mean (MRGPRX4; [Ligand] 3.9063e-6 M)	microscale thermophoresis response (binding isotherm), mean (MRGPRX4; [Ligand] 7.8125e-6 M)	microscale thermophoresis response (binding isotherm), mean (MRGPRX4; [Ligand] 1.5625e-5 M)	microscale thermophoresis response (binding isotherm), mean (MRGPRX4; [Ligand] 3.125e-5 M)	microscale thermophoresis response (binding isotherm), mean (MRGPRX4; [Ligand] 6.25e-5 M)	microscale thermophoresis response (binding isotherm), mean (MRGPRX4; [Ligand] 0.000125 M)	microscale thermophoresis response (binding isotherm), mean (MRGPRX4; [Ligand] 0.00025 M)	microscale thermophoresis response (binding isotherm), mean (MRGPRX4; [Ligand] 0.0005 M)	microscale thermophoresis response (binding isotherm), mean (MRGPRX4; [Ligand] 0.001 M)	Molecule	Binding to MRGPRX4 (MRGPRX4)	further results
7.584	6.444	6.442	4.051	-2.46	-5.393	5.84	1.017	9.66	19.4349	35.6519	68.0309	97.8035	117.52	123.698	119.096	C=CC1=C(C)/C(=C/c2[nH]c(Cc3[nH]c(/C=C4\NC(=O)C(C)=C4C=C)c(C)c3CCC(=O)O)c(CCC(=O)O)c2C)NC1=O [bilirubin, bilirubin IXα]		Scratching bouts (mice; 60 μg bilirubin pre-incubated with 1% human serum albumin (+HSA), nape, WT mice (Fig 1A)): 7; Scratching of A1 KO animals versus WT mice (mice; 60 µg injected): scratched significantly less than WT mice; Scratching of BVR KO mice (mice; 150 µg chloroquine or 60 µg bilirubin, 30 min): scratched normally; Scratching bouts to chloroquine plus bilirubin (mice; 1 mM chloroquine plus 500 µM bilirubin injected into back): Synergism of bilirubin with chloroquine pruritus; Less scratching of Mrgpr-cluster KO animals than wild type mice (mice; bilirubin injection (Fig 1C)): approximately 75%; Scratching (mice; bilirubin pre-incubated with excess human serum albumin): elicited fewer scratches; Scratching at the site of injection (mice; pathophysiologic concentrations, s.c. into the nape): stimulated scratching in a dose-dependent manner; Scratching bouts binned according to 5 min intervals (time course of itch behavior) (mice; time 5 min): 0 (10×) and 0.09677 and 0.08333 and 0.1304 and 0.2264 and 0.2353 and 0.07317; Scratching bouts binned according to 5 min intervals (time course of itch behavior) (mice; time 10 min): 0.1786 and 0.5556 and 0.32 and 0.3226 and 0 (4×) and 0.1304 and 0.04 and 0.15 and 0.2642 and 0.1026 and 0.3529 and 0.2941 and 0.05128; Scratching bouts binned according to 5 min intervals (time course of itch behavior) (mice; time 15 min): 0.25 and 0.4444 and 0.32 and 0.2258 and 0.1667 and 0.3913 and 0.66 and 0.1 and 0.1698 and 0.5116 and 0.2051 and 0.5 and 0.2941 and 0.2647 and 0.1951 and 0.2308; Scratching bouts binned according to 5 min intervals (time course of itch behavior) (mice; time 20 min): 0.07143 and 0 (2×) and 0.16 and 0.06452 and 0.08333 and 0.3043 and 0.1 and 0.45 and 0.1509 and 0.4419 and 0.4872 and 0.1364 and 0.08824 and 0.2195 and 0.1026; Scratching bouts binned according to 5 min intervals (time course of itch behavior) (mice; time 25 min): 0.07143 and 0 (3×) and 0.2 and 0.03226 and 0.3333 and 0.04348 and 0.06 and 0.15 and 0.04651 and 0.2727 and 0.1765 and 0.05882 and 0.3659 and 0.6154; Scratching bouts binned according to 5 min intervals (time course of itch behavior) (mice; time 30 min): 0.4286 and 0 (5×) and 0.2581 and 0.3333 and 0.14 and 0.15 and 0.1887 and 0.2051 and 0.09091 and 0.1765 and 0.05882 and 0.1463; Calcium response of peritoneal mast cells [1]: did not elicit a calcium response; Calcium response of other Mrgprs to bilirubin (Mrgprs): No other Mrgpr among the 12 that we screened responded
14.6332	-0.3949	-3.186	10.7277	1.18	3.799	8.125	1.993	2.933	-0.662	8.64	18.6992	39.4499	46.5687	49.0399	52.0554	C=CC1=C(C)/C(=C/c2[nH]c(Cc3[nH]c(/C=C4\NC(=O)C(C)=C4C=C)c(C)c3CCC(=O)NCCS(=O)(=O)O)c(CCC(=O)NCCS(=O)(=O)O)c2C)NC1=O [conjugated bilirubin, bilirubin ditaurate]	lower affinity than unconjugated bilirubin	
0	0	0	0	0	0	0	0	0	0	0	0	0	0	0		hemin	did not bind	Scratching behavior (mice; metabolite injected into mice (Fig 1D)): did not induce scratching
